Data from US8450317B2, “CXCR3 receptor antagonists” (Boehringer Ingelheim International GmbH, priority 2009, dated 2013).

Target: CXCR3 (Macaca fascicularis, UniProt A0A2K5UV19)
Assay: functional cellular assay measuring calcium flux in CXCR3 transfected cells (block of CXCR3/IP-10 interaction)
Format: cell-based, Cyno
Details: IP-10 induced intracellular calcium flux; Cyno-CHO cells stably expressing recombinant CXCR3 and G-alpha-16; IP-10 at EC80; read-out: IC50
Procedure, shortened: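 Cyno-CHO cells stably expressing CXCR3 and G-alpha-16, loaded with Ca-4 dye in HBSS/10 mM HEPES pH 7.4 with 2 mM probenecid for 1 h at 37° C. Compound (final 10 microM) preincubated 15 min at room temperature, then IP-10 at EC80 added; calcium flux read at 480/540 nm.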

CXCR3, sequence (A0A2K5UV19 entry or part of it): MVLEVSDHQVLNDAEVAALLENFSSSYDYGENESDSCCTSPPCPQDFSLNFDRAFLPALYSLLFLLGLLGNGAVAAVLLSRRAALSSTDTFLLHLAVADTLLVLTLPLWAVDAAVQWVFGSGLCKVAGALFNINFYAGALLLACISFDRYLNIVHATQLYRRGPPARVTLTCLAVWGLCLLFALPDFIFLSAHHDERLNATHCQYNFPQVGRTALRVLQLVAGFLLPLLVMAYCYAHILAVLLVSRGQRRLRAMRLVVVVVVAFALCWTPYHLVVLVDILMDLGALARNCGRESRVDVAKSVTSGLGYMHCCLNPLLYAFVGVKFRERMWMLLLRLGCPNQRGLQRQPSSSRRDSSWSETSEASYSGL

| Compound | IC50 |
| --- | --- |
| O=C(Cn1ccc2cccnc21)N1CCN(c2ccccc2-c2ccc(Cl)nc2)CC1 [1-{4-[2-(6-Chloro-pyridin-3-yl)-phenyl]-piperazin-1-yl}-2-pyrrolo[2,3-b]pyridin-1-yl-ethanone] | 31 nM |
| COc1ccc(-c2ccccc2N2CCN(C(=O)Cn3ccc4cccnc43)CC2)cn1 [1-{4-[2-(6-Methoxy-pyridin-3-yl)-phenyl]-piperazin-1-yl}-2-pyrrolo[2,3-b]pyridin-1-yl-ethanone] | 34 nM |
| O=C(Cn1ccc2cccnc21)N1CCN(c2c(F)cccc2-c2cnc(N3CCOCC3)nc2)CC1 [1-{4-[2-Fluoro-6-(2-morpholin-4-yl-pyrimidin-5-yl)-phenyl]-piperazin-1-yl}-2-pyrrolo[2,3-b]pyridin-1-yl-ethanone] | 27 nM |
| CS(=O)(=O)c1ncc(-c2cc(Cl)ccc2N2CCN(C(=O)Cn3ccc4cccnc43)CC2)cn1 [1-{4-[4-Chloro-2-(2-methanesulfonyl-pyrimidin-5-yl)-phenyl]-piperazin-1-yl}-2-pyrrolo[2,3-b]pyridin-1-yl-ethanone] | 24 nM |
| COc1ncc(-c2cc(Cl)ccc2N2CCN(C(=O)Cn3nc(C)cc3C)CC2)cn1 [1-{4-[4-Chloro-2-(2-methoxy-pyrimidin-5-yl)-phenyl]-piperazin-1-yl}-2-(3,5-dimethyl-pyrazol-1-yl)-ethanone] | 12 nM |
| COc1ncc(-c2cc(Cl)ccc2N2CCN(C(=O)Cn3ccc4cccnc43)CC2)cn1 [1-{4-[4-Chloro-2-(2-methoxy-pyrimidin-5-yl)-phenyl]-piperazin-1-yl}-2-pyrrolo[2,3-b]pyridin-1-yl-ethanone] | 7 nM |
| CNc1ncc(-c2cc(Cl)ccc2N2CCN(C(=O)Cn3nc(C)cc3C)CC2)cn1 [1-{4-[4-Chloro-2-(2-methylamino-pyrimidin-5-yl)-phenyl]-piperazin-1-yl}-2-(3,5-dimethyl-pyrazol-1-yl)-ethanone] | 13 nM |
| CNc1ncc(-c2cc(Cl)ccc2N2CCN(C(=O)Cn3ccc4cccnc43)CC2)cn1 [1-{4-[4-Chloro-2-(2-methylamino-pyrimidin-5-yl)-phenyl]-piperazin-1-yl}-2-pyrrolo[2,3-b]pyridin-1-yl-ethanone] | 6 nM |
| CSc1ncc(-c2cc(Cl)ccc2N2CCN(C(=O)Cn3nc(C)cc3C)CC2)cn1 [1-{4-[4-Chloro-2-(2-methylsulfanyl-pyrimidin-5-yl)-phenyl]-piperazin-1-yl}-2-(3,5-dimethyl-pyrazol-1-yl)-ethanone] | 7 nM |
| CSc1ncc(-c2cc(Cl)ccc2N2CCN(C(=O)Cn3ccc4cccnc43)CC2)cn1 [1-{4-[4-Chloro-2-(2-methylsulfanyl-pyrimidin-5-yl)-phenyl]-piperazin-1-yl}-2-pyrrolo[2,3-b]pyridin-1-yl-ethanone] | 8 nM |
| Cc1cc(C)n(CC(=O)N2CCN(c3ccc(Cl)cc3-c3cnc(N4CCOCC4)nc3)CC2)n1 [1-{4-[4-Chloro-2-(2-morpholin-4-yl-pyrimidin-5-yl)-phenyl]-piperazin-1-yl}-2-(3,5-dimethyl-pyrazol-1-yl)-ethanone] | 11 nM |
| O=C(Cn1ccc2cccnc21)N1CCN(c2ccc(Cl)cc2-c2cnc(N3CCOCC3)nc2)CC1 [1-{4-[4-Chloro-2-(2-morpholin-4-yl-pyrimidin-5-yl)-phenyl]-piperazin-1-yl}-2-pyrrolo[2,3-b]pyridin-1-yl-ethanone] | 13 nM |
| COc1ccc(N2CCN(C(=O)Cn3ccc4cccnc43)CC2)c(-c2cnc(N3CCOCC3)nc2)c1 [1-{4-[4-Methoxy-2-(2-morpholin-4-yl-pyrimidin-5-yl)-phenyl]-piperazin-1-yl}-2-pyrrolo[2,3-b]pyridin-1-yl-ethanone] | 9 nM |
| COc1ncc(-c2cc(F)ccc2N2CCN(C(=O)Cn3ccc4cccnc43)CC2)cn1 [1-{4-[4-fluoro-2-(2-methoxypyrimidin-5-yl)phenyl]piperazin-1-yl}-2-(1H-pyrrolo[2,3-b]pyridin-1-yl)ethanone] | 11 nM |
| COc1ncc(-c2cc(F)ccc2N2CCN(C(=O)Cn3ccc4ccncc43)CC2)cn1 [1-{4-[4-fluoro-2-(2-methoxypyrimidin-5-yl)phenyl]piperazin-1-yl}-2-(1H-pyrrolo[2,3-c]pyridin-1-yl)ethanone] | 13 nM |
| COc1ncc(-c2cc(F)ccc2N2CCN(C(=O)Cn3cnc4cccnc43)CC2)cn1 [1-{4-[4-fluoro-2-(2-methoxypyrimidin-5-yl)phenyl]piperazin-1-yl}-2-(3H-imidazo[4,5-b]pyridin-3-yl)ethanone] | 53 nM |
| CC1CN(c2ccc(C(F)(F)F)cc2-c2cnc(N3CCC(S(C)(=O)=O)CC3)nc2)CCN1C(=O)CN1Cc2ccccc2C1=O (centres unmarked) [2-(2-{2-methyl-4-[2-{2-[4-(methylsulfonyl)piperidin-1-yl]pyrimidin-5-yl}-4-(trifluoromethyl)phenyl]piperazin-1-yl}-2-oxoethyl)-2,3-dihydro-1H-isoindol-1-one] | 7 nM |
| COc1ncc(-c2ccccc2N2CCN(C(=O)CN3Cc4ccccc4C3=O)CC2)cn1 [2-(2-{4-[2-(2-Methoxy-pyrimidin-5-yl)-phenyl]-piperazin-1-yl}-2-oxo-ethyl)-2,3-dihydro-isoindol-1-one] | 17 nM |
| Cc1cc(C)n(CC(=O)N2CCN(c3ccccc3-c3cnc(N4CCCC(F)C4)nc3)CC2)n1 (centres unmarked) [2-(3,5-Dimethyl-pyrazol-1-yl)-1-(4-{2-[2-(3-fluoro-piperidin-1-yl)-pyrimidin-5-yl]-phenyl}-piperazin-1-yl)-ethanone] | 8 nM |
| Cc1cc(C)n(CC(=O)N2CCN(c3ccccc3-c3cnc(N4CCC(O)C4)nc3)CC2)n1 (centres unmarked) [2-(3,5-Dimethyl-pyrazol-1-yl)-1-(4-{2-[2-(3-hydroxy-pyrrolidin-1-yl)-pyrimidin-5-yl]-phenyl}-piperazin-1-yl)-ethanone] | 9 nM |
| Cc1cc(C)n(CC(=O)N2CCN(c3ccccc3-c3cnc(N4CCCC(C(F)(F)F)C4)nc3)CC2)n1 (centres unmarked) [2-(3,5-Dimethyl-pyrazol-1-yl)-1-(4-{2-[2-(3-trifluoromethyl-piperidin-1-yl)-pyrimidin-5-yl]-phenyl}-piperazin-1-yl)-ethanone] | 12 nM |
| Cc1cc(C)n(CC(=O)N2CCN(c3ccccc3-c3cnc(N4CCC(F)CC4)nc3)CC2)n1 [2-(3,5-Dimethyl-pyrazol-1-yl)-1-(4-{2-[2-(4-fluoro-piperidin-1-yl)-pyrimidin-5-yl]-phenyl}-piperazin-1-yl)-ethanone] | 10 nM |
| Cc1cc(C)n(CC(=O)N2CCN(c3ccccc3-c3cnc(N4CCC(O)CC4)nc3)CC2)n1 [2-(3,5-Dimethyl-pyrazol-1-yl)-1-(4-{2-[2-(4-hydroxy-piperidin-1-yl)-pyrimidin-5-yl]-phenyl}-piperazin-1-yl)-ethanone] | 7 nM |
| Cc1cc(C)n(CC(=O)N2CCN(c3ccccc3-c3cnc(N4CCC(S(C)(=O)=O)CC4)nc3)CC2)n1 [2-(3,5-Dimethyl-pyrazol-1-yl)-1-(4-{2-[2-(4-methanesulfonyl-piperidin-1-yl)-pyrimidin-5-yl]-phenyl}-piperazin-1-yl)-ethanone] | 6 nM |
| COC1(C)CCN(c2ncc(-c3ccccc3N3CCN(C(=O)Cn4nc(C)cc4C)CC3)cn2)CC1 [2-(3,5-Dimethyl-pyrazol-1-yl)-1-(4-{2-[2-(4-methoxy-4-methyl-piperidin-1-yl)-pyrimidin-5-yl]-phenyl}-piperazin-1-yl)-ethanone] | 33 nM |
| Cc1cc(C)n(CC(=O)N2CCN(c3ccccc3-c3cnc(N4CCN(C)CC4)nc3)CC2)n1 [2-(3,5-Dimethyl-pyrazol-1-yl)-1-(4-{2-[2-(4-methyl-piperazin-1-yl)-pyrimidin-5-yl]-phenyl}-piperazin-1-yl)-ethanone] | 40 nM |
